Results taken from patent US5811278A, “Dipeptidyl peptidase IV from Xanthomonas maltophilia and process for producing the same” (Ajinomoto Co., Inc., priority 1995, dated 1998).
Read-outs that look alike come from different tables or passages of the source. Where a SMILES comes first, the peptide text is derived from it. The star is where a group is joined. βNA = c1ccc2cc(N*)ccc2c1

Key:
Assay type in all cases: biochemical
[1] = target: T1, dipeptidyl peptidase IV obtainable from Xanthomonas maltophilia (Stenotrophomonas maltophilia, UniProt P95782); assay: Substrate specificity for low molecular weight synthetic peptide substrates; conditions: for activity at 500 µM: read-out: Relative activity (%)
Procedure: In the present invention, the dipeptidyl peptidase IV activity was measured according to the method of Yoshimoto et al. (J. Biochem., 91:1899-1906 (1982)).
The used substrates are shown in Table 1, and the concentration thereof was 0.5 mM.
Using Gly-Pro-β-naphthylamide as the substrate, 0.1 ml of 5 mM Gly-Pro-β-naphthylamide and 0.1 ml of an enzyme solution were added to 0.8 ml of 20 mM Tris-HCl buffer (pH 8.0) containing 5 mM EDTA and allowed to react with each other at 37° C. for 5 minutes, the reaction was terminated by adding 0.5 ml of Fast Garnet GBC (0.1% solution prepared by dissolving it in 1M acetate buffer (pH 4.0) containing 10% Triton X-100) and then absorbance at 550 nm was measured.

[2] = target: T1, dipeptidyl peptidase IV obtainable from Xanthomonas maltophilia; assay: Influence of metal ions on the enzyme activity; conditions: substrate Gly-Pro-β-naphthylamide; for Relative activity (%): metal ion 1 mM, control 100
Target sequence in this assay (P95782 21-741 limits assumed): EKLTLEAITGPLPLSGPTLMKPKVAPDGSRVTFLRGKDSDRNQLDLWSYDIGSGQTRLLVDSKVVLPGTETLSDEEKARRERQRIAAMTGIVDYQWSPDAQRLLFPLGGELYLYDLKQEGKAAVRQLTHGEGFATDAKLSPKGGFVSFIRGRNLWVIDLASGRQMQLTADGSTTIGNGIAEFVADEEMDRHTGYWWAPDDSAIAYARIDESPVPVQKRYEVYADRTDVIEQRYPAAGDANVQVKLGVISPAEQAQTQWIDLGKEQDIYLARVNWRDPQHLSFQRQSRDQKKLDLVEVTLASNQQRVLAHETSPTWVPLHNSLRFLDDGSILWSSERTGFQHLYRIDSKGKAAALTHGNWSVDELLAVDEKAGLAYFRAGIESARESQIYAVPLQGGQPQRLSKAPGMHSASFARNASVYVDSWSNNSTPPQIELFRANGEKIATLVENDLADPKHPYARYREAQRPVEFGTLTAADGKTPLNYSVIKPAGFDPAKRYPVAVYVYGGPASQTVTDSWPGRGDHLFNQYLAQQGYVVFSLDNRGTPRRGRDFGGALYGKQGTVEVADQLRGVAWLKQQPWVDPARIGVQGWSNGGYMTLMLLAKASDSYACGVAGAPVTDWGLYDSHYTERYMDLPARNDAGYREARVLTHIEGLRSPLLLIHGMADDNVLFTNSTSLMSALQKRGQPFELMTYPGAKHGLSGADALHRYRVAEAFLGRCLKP

[3] = target: T1, dipeptidyl peptidase IV obtainable from Xanthomonas maltophilia; assay: biochemical
Target sequence in this assay (P95782 21-741 limits assumed): as above

[4] = hydrolysis of the substrate by the enzyme, substrate concentration 0.5 mM

## Gly--Pro--Ala
[1]; [4]
  Relative activity (%): 40%

## Gly--Pro--Leu--Gly (GPLG; printed: Gly--Pro--Leu--Gly)
[1]; [4]
  Relative activity (%): 50%

## [Cl][Hg][Cl] [HgCl2]
[2]; 1 mM
  Inhibition of the enzyme activity by metal ion (in words): inhibited by HgCl2 almost completely
[2]
  Relative activity (%): 0%

## NCC(=O)N1CCC[C@H]1C(=O)Nc1ccc2ccccc2c1 [Gly--Pro-β-naphthylamide, Gly-Pro-β-naphthylamide] (H-Gly-Pro-βNA)
[1]; [4]
  activity at 500 µM: 100%

## C[C@H](N)C(=O)N1CCC[C@H]1C(=O)Nc1ccc2ccccc2c1 [Ala--Pro-β-naphthy1amide] (H-Ala-Pro-βNA)
[1]
  activity at 500 µM: 105%

## [Cl][Ni][Cl] [NiCl2]
[2]
  Relative activity (%): 100%

## [Cl-].[Cl-].[Zn+2] [ZnCl2]
[2]
  Relative activity (%): 95%

## O=C(O)c1cc[c]([Hg][Cl])cc1 [PCMB]
[3]
  Relative activity (%): 96%

## O=C(O)CN(CCN(CC(=O)O)CC(=O)O)CC(=O)O [EDTA]
[3]; read-out: Relative activity (%)
  activity at 5000 µM: 100%

## C[C@H](N)C(=O)N[C@@H](C)C(=O)Nc1ccc2ccccc2c1 [Ala--Ala-β-naphthylamide] (H-Ala-Ala-βNA)
[1]; [4]
  activity at 500 µM: 100%
